Reference: patent US9302999B2, “Substituted triazoles as herbicides” (E. I. DU PONT DE NEMOURS AND COMPANY, priority 2012, dated 2016)

Legend:
Type in all cases: in vivo
[1] = tested on: poinsettia, wild (wild poinsettia, Euphorbia heterophylla); experiment: Test F pre-/postemergence: poinsettia, wild
In short: (§1)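 0–100 visual control scores, taken 14–21 d after application in the greenhouse. Preemergence treatment was made to silt loam soil at sowing. Postemergence sprays hit 1- to 4-leaf plants (2–18 cm) in peat/vermiculite mix. Surfactant-containing non-phytotoxic solvent served as the vehicle.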

Waterhemp = experiment: Test C preemergence: waterhemp; conditions: 62 g ai/ha, scale of 0 to 100, 0 is no effect, 100 is complete control
[2] = tested on: barnyardgrass (Echinochloa crus-galli); experiment: Test F pre-/postemergence: barnyardgrass
In short: as §1

[3] = Postemergence, 4 g ai/ha, scale 0 to 100
[4] = Postemergence, 8 g ai/ha, scale 0 to 100
[5] = Postemergence, 16 g ai/ha, scale 0 to 100
[6] = Postemergence, 31 g ai/ha, scale 0 to 100
[7] = Postemergence, 62 g ai/ha, scale 0 to 100
[8] = Preemergence, 4 g ai/ha, scale 0 to 100, 0 no effect, 100 complete control
[9] = Preemergence, 8 g ai/ha, scale 0 to 100, 0 no effect, 100 complete control
[10] = Preemergence, 16 g ai/ha, scale 0 to 100 (0 no effect, 100 complete control)
[11] = Preemergence, 31 g ai/ha, scale 0 to 100 (0 no effect, 100 complete control)

Cc1nn(-c2ccc(C(F)(F)F)c(F)c2)nc1Cc1ccnc(C(F)(F)F)c1 [Compound 162]
Plant response rating, Poinsettia, Wild [1, 3]: 15
Plant response rating, Poinsettia, Wild [1, 4]: 30
Plant response rating, Poinsettia, Wild [1, 5]: 60
Plant response rating, Poinsettia, Wild [1, 6]: 75
Plant response rating, Poinsettia, Wild [1, 7]: 80
Plant response rating, Poinsettia, Wild [1, 8]: 0
Plant response rating, Poinsettia, Wild [1, 9]: 0
Plant response rating, Poinsettia, Wild [1, 10]: 0
Plant response rating, Poinsettia, Wild [1, 11]: 10
Plant response rating, Waterhemp (Waterhemp): 100
Plant response rating, Barnyardgrass [2, 3]: 10
Plant response rating, Barnyardgrass [2, 4]: 10
Plant response rating, Barnyardgrass [2, 5]: 10
Plant response rating, Barnyardgrass [2, 6]: 25
Plant response rating, Barnyardgrass [2, 7]: 35
Plant response rating, Barnyardgrass [2, 8]: 0
Plant response rating, Barnyardgrass [2, 9]: 20
Plant response rating, Barnyardgrass [2, 10]: 20
Plant response rating, Barnyardgrass [2, 11]: 30
Plant response rating, Barnyardgrass ([2]; Preemergence, 62 g ai/ha, scale 0 to 100): 30
